According to ChEMBL document CHEMBL3751819, “Navigating into the chemical space between MGCD0103 and SAHA: novel histone deacetylase inhibitors as a promising lead” (Medchemcomm, 2015):
pIC50: −log10 of the molar value. Active and inactive are the calls of the source. The calls are words filed in the database; no cut-off is given here.

Tests used:
[1] = tested on: HeLa; test: Induction of apoptosis in human HeLa cells assessed as late apoptotic cells at 2.5 uM after 48 hrs by annexin-V-FITC/propidium iodide staining based flow cytometry (reference value: 9.3%); type: functional
[2] = tested on: HeLa; test: Induction of cell cycle arrest in human HeLa cells assessed as accumulation at G0/G1 phase at 2 uM after 24 hrs by propidium iodide staining based flow cytometry (reference value: 0.5 to 0.52%); type: functional
[3] = Half life in artificial gastric fluid; type: ADME
[4] = tested on: HeLa; test: Induction of apoptosis in human HeLa cells assessed as necrotic cells at 2.5 uM after 48 hrs by annexin-V-FITC/propidium iodide staining based flow cytometry (reference value: 0.693%); type: functional
[5] = tested on: HeLa; test: Induction of apoptosis in human HeLa cells assessed as early apoptotic cells at 1.25 uM after 48 hrs by annexin-V-FITC/propidium iodide staining based flow cytometry (reference value: 1.4%); type: functional
[6] = tested on: HeLa; test: Induction of apoptosis in human HeLa cells assessed as viable cells at 1.25 uM after 48 hrs by annexin-V-FITC/propidium iodide staining based flow cytometry (reference value: 88.6%); type: functional; conditions: Homo sapiens, HeLa, 48 h; read-out: Activity
[7] = Antiproliferative activity against human HCT116 cells assessed as reduction in cell viability after 48 hrs by MTT assay; type: functional, cell-based; conditions: HCT-116, 48 h
[8] = tested on: HeLa; test: Induction of apoptosis in human HeLa cells assessed as viable cells at 5 uM after 48 hrs by annexin-V-FITC/propidium iodide staining based flow cytometry (reference value: 88.6%); type: functional; conditions: Homo sapiens, HeLa, 48 h; read-out: Activity
[9] = tested on: HeLa; test: Induction of cell cycle arrest in human HeLa cells assessed as accumulation at S phase at 2 uM after 24 hrs by propidium iodide staining based flow cytometry (reference value: 0.12 to 0.13%); type: functional
[10] = molecular target: T1, Protein deacetylase HDAC6 (Homo sapiens) (UniProt Q9UBN7); test: Inhibition of HDAC6 in human A549 cells assessed as increase in acetylated tubulin expression at 5 uM incubated for 12 hrs by DAPI staining based immunofluorescence microscopy; type: cell-based
T1 sequence (whole entry): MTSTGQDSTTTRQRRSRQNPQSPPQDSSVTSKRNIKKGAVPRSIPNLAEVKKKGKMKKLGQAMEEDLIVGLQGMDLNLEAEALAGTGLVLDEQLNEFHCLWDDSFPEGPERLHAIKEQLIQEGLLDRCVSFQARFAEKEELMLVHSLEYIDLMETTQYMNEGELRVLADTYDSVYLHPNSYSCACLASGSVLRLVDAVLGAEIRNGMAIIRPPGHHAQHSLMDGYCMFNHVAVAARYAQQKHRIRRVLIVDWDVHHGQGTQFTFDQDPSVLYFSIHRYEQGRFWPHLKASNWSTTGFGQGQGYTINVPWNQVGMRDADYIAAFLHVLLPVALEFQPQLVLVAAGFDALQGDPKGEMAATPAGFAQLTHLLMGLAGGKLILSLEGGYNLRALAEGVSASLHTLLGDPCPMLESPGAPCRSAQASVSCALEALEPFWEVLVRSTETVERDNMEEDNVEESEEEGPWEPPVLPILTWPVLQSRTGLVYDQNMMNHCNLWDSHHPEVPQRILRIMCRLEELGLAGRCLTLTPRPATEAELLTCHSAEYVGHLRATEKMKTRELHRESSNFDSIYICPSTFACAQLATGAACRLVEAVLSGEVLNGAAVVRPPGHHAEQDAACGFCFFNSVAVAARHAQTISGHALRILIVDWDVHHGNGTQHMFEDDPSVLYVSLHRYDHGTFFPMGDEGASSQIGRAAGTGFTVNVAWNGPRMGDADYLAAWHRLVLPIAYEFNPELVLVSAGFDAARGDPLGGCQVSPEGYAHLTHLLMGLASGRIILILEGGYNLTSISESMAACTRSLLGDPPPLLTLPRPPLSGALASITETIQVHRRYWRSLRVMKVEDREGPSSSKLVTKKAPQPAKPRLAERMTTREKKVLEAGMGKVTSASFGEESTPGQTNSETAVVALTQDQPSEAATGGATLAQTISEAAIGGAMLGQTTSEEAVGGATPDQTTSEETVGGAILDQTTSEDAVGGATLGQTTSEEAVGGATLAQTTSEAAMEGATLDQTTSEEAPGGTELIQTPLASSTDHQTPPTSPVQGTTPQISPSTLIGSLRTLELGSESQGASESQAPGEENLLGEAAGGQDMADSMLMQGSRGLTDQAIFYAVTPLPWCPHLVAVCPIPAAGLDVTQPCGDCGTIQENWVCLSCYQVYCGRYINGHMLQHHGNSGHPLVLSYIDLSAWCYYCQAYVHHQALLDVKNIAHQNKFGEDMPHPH

[11] = tested on: A549; test: Antiproliferative activity against human A549 cells assessed as reduction in cell viability after 72 hrs by MTT assay; type: functional, cell-based; conditions: for pIC50: A549, 72 h
[12] = tested on: MCF7; test: Antiproliferative activity against human MCF7 cells assessed as reduction in cell viability after 24 hrs by MTT assay; type: functional, cell-based; conditions: MCF7, 24 h
[13] = tested on: HeLa; test: Antiproliferative activity against human HeLa cells assessed as reduction in cell viability after 72 hrs by MTT assay; type: functional, cell-based
[14] = molecular target: T2, Protein deacetylase HDAC6 (Homo sapiens, UniProt Q9UBN7); test: Inhibition of HDAC6 (unknown origin) using Boc-Lys(acetyl)-AMC as substrate preincubated for 5 mins followed by substrate addition by fluorescence assay
T2 sequence (Q9UBN7 whole entry): T1 sequence (whole entry)

[15] = tested on: HeLa; test: Induction of apoptosis in human HeLa cells assessed as late apoptotic cells at 1.25 uM after 48 hrs by annexin-V-FITC/propidium iodide staining based flow cytometry (reference value: 9.3%); type: functional
[16] = tested on: HeLa; test: Induction of cell cycle arrest in human HeLa cells assessed as accumulation at G2/M phase at 1 uM after 24 hrs by propidium iodide staining based flow cytometry (reference value: 0.35 to 0.37%); type: functional
[17] = Antiproliferative activity against human HCT116 cells assessed as reduction in cell viability after 24 hrs by MTT assay; type: functional, cell-based; conditions: HCT-116, 24 h
[18] = tested on: HeLa; test: Induction of cell cycle arrest in human HeLa cells assessed as accumulation at S phase at 1 uM after 24 hrs by propidium iodide staining based flow cytometry (reference value: 0.12 to 0.13%); type: functional
[19] = tested on: A549; test: Antiproliferative activity against human A549 cells assessed as reduction in cell viability after 48 hrs by MTT assay; type: functional, cell-based; conditions: A549, 48 h
[20] = molecular target: Histone deacetylase 1 (Homo sapiens, UniProt Q13547); test: Inhibition of HDAC1 (unknown origin) using Boc-Lys(acetyl)-AMC as substrate preincubated for 5 mins followed by substrate addition by fluorescence assay
[21] = molecular target: Histone deacetylase 2 (Homo sapiens, UniProt Q92769); test: Inhibition of HDAC2 (unknown origin) using Boc-Lys(acetyl)-AMC as substrate preincubated for 5 mins followed by substrate addition by fluorescence assay
[22] = tested on: HepG2; test: Antiproliferative activity against human HepG2 cells assessed as reduction in cell viability after 48 hrs by MTT assay; type: functional, cell-based; conditions: HepG2, 48 h
[23] = tested on: HeLa; test: Induction of cell cycle arrest in human HeLa cells assessed as accumulation at G0/G1 phase at 1 uM after 24 hrs by propidium iodide staining based flow cytometry (reference value: 0.5 to 0.52%); type: functional

Sequence of Histone deacetylase 1 (Q13547 whole entry): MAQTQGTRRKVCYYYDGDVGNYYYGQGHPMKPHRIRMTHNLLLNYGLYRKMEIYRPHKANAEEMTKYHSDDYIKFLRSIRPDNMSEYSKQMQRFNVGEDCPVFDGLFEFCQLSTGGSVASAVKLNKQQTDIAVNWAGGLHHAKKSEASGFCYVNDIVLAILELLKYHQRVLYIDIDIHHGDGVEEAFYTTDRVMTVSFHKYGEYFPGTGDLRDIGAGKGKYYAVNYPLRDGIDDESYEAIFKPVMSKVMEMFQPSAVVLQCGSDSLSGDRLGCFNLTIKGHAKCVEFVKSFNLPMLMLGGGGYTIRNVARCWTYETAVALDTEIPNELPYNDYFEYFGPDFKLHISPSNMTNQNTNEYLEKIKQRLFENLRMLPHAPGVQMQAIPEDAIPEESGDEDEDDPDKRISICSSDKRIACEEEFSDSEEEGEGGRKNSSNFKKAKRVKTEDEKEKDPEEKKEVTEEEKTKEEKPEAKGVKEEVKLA
Sequence of Histone deacetylase 2 (Q92769 whole entry): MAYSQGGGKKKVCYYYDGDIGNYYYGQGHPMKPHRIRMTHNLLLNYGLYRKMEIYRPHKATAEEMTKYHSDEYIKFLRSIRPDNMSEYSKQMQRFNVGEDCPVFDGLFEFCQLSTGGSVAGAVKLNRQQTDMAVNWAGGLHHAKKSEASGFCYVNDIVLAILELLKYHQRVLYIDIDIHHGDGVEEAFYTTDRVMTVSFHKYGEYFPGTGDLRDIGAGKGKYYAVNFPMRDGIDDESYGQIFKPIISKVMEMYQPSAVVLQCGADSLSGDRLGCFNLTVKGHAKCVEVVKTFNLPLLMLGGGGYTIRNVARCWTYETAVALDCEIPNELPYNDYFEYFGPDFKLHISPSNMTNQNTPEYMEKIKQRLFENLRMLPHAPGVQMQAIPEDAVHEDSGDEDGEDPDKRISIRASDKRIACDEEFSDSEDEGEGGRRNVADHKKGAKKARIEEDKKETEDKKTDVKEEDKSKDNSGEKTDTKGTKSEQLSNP

Row | Structure (SMILES) | Activity [1] [%] | Activity [2] [%] | half-life [3] [h] | Activity [4] [%] | Activity [5] [%] | viability at 1.25 µM [6] [%] | pIC50 [7] | viability at 5 µM [8] [%] | Activity [9] [%] | inhibition [10] | Activity [11] | pIC50 [11] | pIC50 [12] | pIC50 [13] | pIC50 [14] | Activity [15] [%] | Activity [16] [%] | pIC50 [17] | Activity [18] [%] | pIC50 [19] | also measured
1 | O=C(NO)c1ccc(CNc2nccc(-c3cccnc3)n2)cc1 | 11.9 | 0.93 | > 24 | 0.72 | 4.89 | 79.3 | > 6.06 | 76.7 | 0.03 | Active | Dose-dependent effect | 5.33 | 4.34 | 5.50 | 7.11 | 14.9 | 0.31 | 4.86 | 0.03 | 4.92 | pIC50 [20]: 7.19; pIC50 [21]: 6.87; pIC50 [22]: 5.39; Activity [23]: 0.66%
2 | O=C(/C=C/c1ccc(CNc2nccc(-c3cccnc3)n2)cc1)NO | 13.2 | 0.87 | > 24 | 0.603 | 4.27 | 82.6 | > 6.09 | 76.5 | 0.03 | Active | Dose-dependent effect | 5.10 | 4.34 | 5.49 | 7.16 | 12.2 | 0.29 | 5.08 | 0.05 | 5.08 | pIC50 [20]: 7.09; pIC50 [21]: 6.73; pIC50 [22]: 5.23; Activity [23]: 0.64%
